These are literature values, as cited in patent US20240226071A9, “SUSTAINED RELEASE OSMOTIC-CONTROLLED PHARMACEUTICAL COMPOSITION AND PREPARATION METHOD THEREOF” (Anxo Pharmaceutical Co., Ltd., priority 2022, published 2024).

On to `O=C1[C@@H]2[C@H]3CC[C@H](C3)[C@@H]2C(=O)N1C[C@@H]1CCCC[C@H]1CN1CCN(c2nsc3ccccc23)CC1` [lurasidone], for which the solubility in water entry is “lower than 0.1 mg/mL”.
